Measured values reported in ChEMBL document CHEMBL5724806, “Unraveling interindividual differences and functional consequences of gut microbial metabolism of immunosuppressants” (2024).

Key:
Assay type in all cases: ADME
[1] = (§1) The drug is tested on Actinomyces naeslundi strain: DSM43013 for biotransformation under anaerobic condition. The drug concentrations were measured over 6 timepoints collected between 0 and 12 hours of incubation by liquid-chromatography-coupled mass spectrometry (LC–MS); parameters: dose 5 uM, timepoint 0, 1.5, 3, 6, 9, 12 hours; details: actinomyces naeslundii, 5 µM
[2] = The drug is tested on Bifidobacterium adolescentis strain: DSM20083 for biotransformation under anaerobic condition. The drug concentrations were measured over 6 timepoints collected between 0 and 12 hours of incubation by liquid-chromatography-coupled mass spectrometry (LC–MS); parameters: dose 5 uM, timepoint 0, 1.5, 3, 6, 9, 12 hours; details: 5 µM
[3] = The drug is tested on Bacteroides ovatus strain: ATCC 8483 for biotransformation under anaerobic condition. The drug concentrations were measured over 6 timepoints collected between 0 and 12 hours of incubation by liquid-chromatography-coupled mass spectrometry (LC–MS); parameters: dose 5 uM, timepoint 0, 1.5, 3, 6, 9, 12 hours; details: 5 µM
[4] = The drug is tested on Bacteroides vulgatus strain: DSM1447 for biotransformation under anaerobic condition. The drug concentrations were measured over 6 timepoints collected between 0 and 12 hours of incubation by liquid-chromatography-coupled mass spectrometry (LC–MS); parameters: dose 5 uM, timepoint 0, 1.5, 3, 6, 9, 12 hours; details: phocaeicola vulgatus, 5 µM
[5] = The drug is tested on Bacteroides xylanisolvens strain: HM 722 for biotransformation under anaerobic condition. The drug concentrations were measured over 6 timepoints collected between 0 and 12 hours of incubation by liquid-chromatography-coupled mass spectrometry (LC–MS); parameters: dose 5 uM, timepoint 0, 1.5, 3, 6, 9, 12 hours; details: 5 µM
[6] = The drug is tested on Capnocytophaga ochracea strain: DSM7271 for biotransformation under anaerobic condition. The drug concentrations were measured over 6 timepoints collected between 0 and 12 hours of incubation by liquid-chromatography-coupled mass spectrometry (LC–MS); parameters: dose 5 uM, timepoint 0, 1.5, 3, 6, 9, 12 hours; details: 5 µM
[7] = The drug is tested on Odoribacter splanchnicus strain: DSM20712 for biotransformation under anaerobic condition. The drug concentrations were measured over 6 timepoints collected between 0 and 12 hours of incubation by liquid-chromatography-coupled mass spectrometry (LC–MS); parameters: dose 5 uM, timepoint 0, 1.5, 3, 6, 9, 12 hours; details: 5 µM
[8] = The drug is tested on Parabacteroides merdae strain: DSM19495 for biotransformation under anaerobic condition. The drug concentrations were measured over 6 timepoints collected between 0 and 12 hours of incubation by liquid-chromatography-coupled mass spectrometry (LC–MS); parameters: dose 5 uM, timepoint 0, 1.5, 3, 6, 9, 12 hours; details: 5 µM
[9] = The drug is tested on Clostridium bolteae strain: DSM15670 for biotransformation under anaerobic condition. The drug concentrations were measured over 6 timepoints collected between 0 and 12 hours of incubation by liquid-chromatography-coupled mass spectrometry (LC–MS); parameters: dose 5 uM, timepoint 0, 1.5, 3, 6, 9, 12 hours; details: enterocloster bolteae, 5 µM
[10] = The drug is tested on Eubacterium rectale strain: DSM17629 for biotransformation under anaerobic condition. The drug concentrations were measured over 6 timepoints collected between 0 and 12 hours of incubation by liquid-chromatography-coupled mass spectrometry (LC–MS); parameters: dose 5 uM, timepoint 0, 1.5, 3, 6, 9, 12 hours; details: agathobacter rectalis, 5 µM
[11] = The drug is tested on Gemella morbillorum strain: DSM20572 for biotransformation under anaerobic condition. The drug concentrations were measured over 6 timepoints collected between 0 and 12 hours of incubation by liquid-chromatography-coupled mass spectrometry (LC–MS); parameters: dose 5 uM, timepoint 0, 1.5, 3, 6, 9, 12 hours; details: 5 µM
[12] = The drug is tested on Streptococcus anginosus strain: DSM20563 for biotransformation under anaerobic condition. The drug concentrations were measured over 6 timepoints collected between 0 and 12 hours of incubation by liquid-chromatography-coupled mass spectrometry (LC–MS); parameters: dose 5 uM, timepoint 0, 1.5, 3, 6, 9, 12 hours; details: 5 µM
[13] = (§2) The drug is tested on Actinomyces naeslundi strain: DSM43013 for biotransformation under microaerobic condition. The drug concentrations were measured over 6 timepoints collected between 0 and 12 hours of incubation by liquid-chromatography-coupled mass spectrometry (LC–MS); parameters: dose 5 uM, timepoint 0, 1.5, 3, 6, 9, 12 hours; details: actinomyces naeslundii, 5 µM
[14] = The drug is tested on Bifidobacterium longum strain: DSM20088 for biotransformation under microaerobic condition. The drug concentrations were measured over 6 timepoints collected between 0 and 12 hours of incubation by liquid-chromatography-coupled mass spectrometry (LC–MS); parameters: dose 5 uM, timepoint 0, 1.5, 3, 6, 9, 12 hours; details: 5 µM
[15] = The drug is tested on Gemella haemolysans strain: DSM107751 for biotransformation under microaerobic condition. The drug concentrations were measured over 6 timepoints collected between 0 and 12 hours of incubation by liquid-chromatography-coupled mass spectrometry (LC–MS); parameters: dose 5 uM, timepoint 0, 1.5, 3, 6, 9, 12 hours; details: 5 µM
[16] = The drug is tested on Lactobacillus fermentum strain: DSM20052 for biotransformation under microaerobic condition. The drug concentrations were measured over 6 timepoints collected between 0 and 12 hours of incubation by liquid-chromatography-coupled mass spectrometry (LC–MS); parameters: dose 5 uM, timepoint 0, 1.5, 3, 6, 9, 12 hours; details: limosilactobacillus fermentum, 5 µM
[17] = The drug is tested on Streptococcus sanguinis strain: DSM20567 for biotransformation under microaerobic condition. The drug concentrations were measured over 6 timepoints collected between 0 and 12 hours of incubation by liquid-chromatography-coupled mass spectrometry (LC–MS); parameters: dose 5 uM, timepoint 0, 1.5, 3, 6, 9, 12 hours; details: 5 µM
[18] = as §1, with “the gut metagenome community of A-06 with ENA study accession number: PRJEB31790” for “Actinomyces naeslundi strain: DSM43013”, “7” for “6”; parameters: dose 5 uM, timepoint 0, 0.75, 1.5, 3, 6, 9, 12 hours; details: 5 µM
[19] = as §1, with “the gut metagenome community of P-03 with ENA study accession number: PRJEB31790” for “Actinomyces naeslundi strain: DSM43013”, “7” for “6”; parameters: dose 5 uM, timepoint 0, 0.75, 1.5, 3, 6, 9, 12 hours; details: 5 µM
[20] = as §1, with “the gut metagenome community of P-04 with ENA study accession number: PRJEB31790” for “Actinomyces naeslundi strain: DSM43013”, “7” for “6”; parameters: dose 5 uM, timepoint 0, 0.75, 1.5, 3, 6, 9, 12 hours; details: 5 µM
[21] = as §1, with “the gut metagenome community of T-02 with ENA study accession number: PRJEB31790” for “Actinomyces naeslundi strain: DSM43013”, “7” for “6”; parameters: dose 5 uM, timepoint 0, 0.75, 1.5, 3, 6, 9, 12 hours; details: 5 µM
[22] = as §1, with “the gut metagenome community of T-03 with ENA study accession number: PRJEB31790” for “Actinomyces naeslundi strain: DSM43013”, “7” for “6”; parameters: dose 5 uM, timepoint 0, 0.75, 1.5, 3, 6, 9, 12 hours; details: 5 µM
[23] = as §1, with “the gut metagenome community of T-04 with ENA study accession number: PRJEB31790” for “Actinomyces naeslundi strain: DSM43013”, “7” for “6”; parameters: dose 5 uM, timepoint 0, 0.75, 1.5, 3, 6, 9, 12 hours; details: 5 µM
[24] = as §2, with “the gut metagenome community of A-01 with ENA study accession number: PRJEB31790” for “Actinomyces naeslundi strain: DSM43013”, “7” for “6”; parameters: dose 5 uM, timepoint 0, 0.75, 1.5, 3, 6, 9, 12 hours; details: 5 µM
[25] = as §2, with “the gut metagenome community of A-02 with ENA study accession number: PRJEB31790” for “Actinomyces naeslundi strain: DSM43013”, “7” for “6”; parameters: dose 5 uM, timepoint 0, 0.75, 1.5, 3, 6, 9, 12 hours; details: 5 µM
[26] = as §2, with “the gut metagenome community of A-03 with ENA study accession number: PRJEB31790” for “Actinomyces naeslundi strain: DSM43013”, “7” for “6”; parameters: dose 5 uM, timepoint 0, 0.75, 1.5, 3, 6, 9, 12 hours; details: 5 µM
[27] = as §2, with “the gut metagenome community of A-06 with ENA study accession number: PRJEB31790” for “Actinomyces naeslundi strain: DSM43013”, “7” for “6”; parameters: dose 5 uM, timepoint 0, 0.75, 1.5, 3, 6, 9, 12 hours; details: 5 µM
[28] = as §2, with “the gut metagenome community of T-01 with ENA study accession number: PRJEB31790” for “Actinomyces naeslundi strain: DSM43013”, “7” for “6”; parameters: dose 5 uM, timepoint 0, 0.75, 1.5, 3, 6, 9, 12 hours; details: 5 µM
[29] = as §2, with “the gut metagenome community of T-02 with ENA study accession number: PRJEB31790” for “Actinomyces naeslundi strain: DSM43013”, “7” for “6”; parameters: dose 5 uM, timepoint 0, 0.75, 1.5, 3, 6, 9, 12 hours; details: 5 µM
[30] = as §2, with “the gut metagenome community of T-04 with ENA study accession number: PRJEB31790” for “Actinomyces naeslundi strain: DSM43013”, “7” for “6”; parameters: dose 5 uM, timepoint 0, 0.75, 1.5, 3, 6, 9, 12 hours; details: 5 µM

Bacterial Biotransformation [1]	Bacterial Biotransformation [2]	Bacterial Biotransformation [3]	Bacterial Biotransformation [4]	Bacterial Biotransformation [5]	Bacterial Biotransformation [6]	Bacterial Biotransformation [7]	Bacterial Biotransformation [8]	Bacterial Biotransformation [9]	Bacterial Biotransformation [10]	Bacterial Biotransformation [11]	Bacterial Biotransformation [12]	Bacterial Biotransformation [13]	Bacterial Biotransformation [14]	Bacterial Biotransformation [16]	Bacterial Biotransformation [17]	Bacterial Biotransformation [18]	Bacterial Biotransformation [19]	Bacterial Biotransformation [20]	Compound	Bacterial Biotransformation [15]	further results
Compound NOT metabolized	Compound NOT metabolized	Compound NOT metabolized	Compound NOT metabolized	Compound NOT metabolized	Compound NOT metabolized	Compound NOT metabolized	Compound NOT metabolized	Compound NOT metabolized	Compound NOT metabolized	Compound NOT metabolized	Compound NOT metabolized	Compound NOT metabolized	Compound NOT metabolized	Compound NOT metabolized	Compound NOT metabolized	Compound metabolized	Compound metabolized	Compound NOT metabolized	C[C@H]1C[C@H]2[C@@H]3CCC4=CC(=O)C=C[C@]4(C)[C@@]3(F)[C@@H](O)C[C@]2(C)[C@@]1(O)C(=O)CO [BETAMETHASONE]	Compound NOT metabolized	Bacterial Biotransformation [21]: Compound metabolized; Bacterial Biotransformation [22]: Compound NOT metabolized; Bacterial Biotransformation [23]: Compound NOT metabolized; Bacterial Biotransformation [24]: Compound NOT metabolized; Bacterial Biotransformation [25]: Compound metabolized; Bacterial Biotransformation [26]: Compound NOT metabolized; Bacterial Biotransformation [27]: Compound NOT metabolized; Bacterial Biotransformation [28]: Compound NOT metabolized; Bacterial Biotransformation [29]: Compound metabolized; Bacterial Biotransformation [30]: Compound NOT metabolized
Compound NOT metabolized	Compound NOT metabolized	Compound NOT metabolized	Compound NOT metabolized	Compound NOT metabolized	Compound NOT metabolized	Compound NOT metabolized	Compound NOT metabolized	Compound NOT metabolized	Compound NOT metabolized	Compound NOT metabolized	Compound NOT metabolized	Compound NOT metabolized	Compound NOT metabolized	Compound NOT metabolized	Compound NOT metabolized	Compound metabolized	Compound metabolized	Compound metabolized	C[C@H]1C[C@@H]2[C@H]([C@@H](O)C[C@@]3(C)[C@H]2CC[C@]3(O)C(=O)CO)[C@@]2(C)C=CC(=O)C=C12 [METHYLPREDNISOLONE]	Compound NOT metabolized	Bacterial Biotransformation [21]: Compound metabolized; Bacterial Biotransformation [22]: Compound NOT metabolized; Bacterial Biotransformation [23]: Compound NOT metabolized; Bacterial Biotransformation [24]: Compound metabolized; Bacterial Biotransformation [25]: Compound metabolized; Bacterial Biotransformation [26]: Compound metabolized; Bacterial Biotransformation [27]: Compound metabolized; Bacterial Biotransformation [28]: Compound metabolized; Bacterial Biotransformation [29]: Compound metabolized; Bacterial Biotransformation [30]: Compound NOT metabolized
Compound NOT metabolized	Compound NOT metabolized	Compound NOT metabolized	Compound NOT metabolized	Compound NOT metabolized	Compound NOT metabolized	Compound NOT metabolized	Compound NOT metabolized	Compound NOT metabolized	Compound NOT metabolized	Compound NOT metabolized	Compound NOT metabolized	Compound NOT metabolized	Compound NOT metabolized	Compound NOT metabolized	Compound NOT metabolized	Compound NOT metabolized	Compound NOT metabolized	Compound NOT metabolized	CCOC(=O)[C@H](CCc1ccccc1)N[C@@H](C)C(=O)N1[C@H](C(=O)O)C[C@@H]2CCC[C@@H]21	Compound NOT metabolized	Bacterial Biotransformation [21]: Compound NOT metabolized; Bacterial Biotransformation [22]: Compound NOT metabolized; Bacterial Biotransformation [23]: Compound NOT metabolized; Bacterial Biotransformation [24]: Compound NOT metabolized; Bacterial Biotransformation [25]: Compound NOT metabolized; Bacterial Biotransformation [26]: Compound NOT metabolized; Bacterial Biotransformation [27]: Compound NOT metabolized; Bacterial Biotransformation [28]: Compound NOT metabolized; Bacterial Biotransformation [29]: Compound NOT metabolized; Bacterial Biotransformation [30]: Compound NOT metabolized
